# Reference: patent US20160046618A1, “Cyclopropyl Fused Thiazin-2-Amine Compounds as Beta-Secretase Inhibitors and Methods of Use” (AMGEN INC., priority 2014, published 2016)
# Assays:
# [1] = target: human recombinant BACE1 (Homo sapiens (Human), UniProt P56817); assay: In vitro enzymatic BACE1 FRET assay; format: biochemical; conditions: BACE1 FRET enzyme assay; read-out: IC50 IP (μM) BACE1 enzyme
# Summary of the method: (§1)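 Protease purified by Ni-NTA chromatography; start with FRET substrate (50 nM); incubate 1 h; quench with Tris to neutral pH; read fluorescence ex 488 / em 590 nm.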
# [2] = target: human recombinant BACE2 (Homo sapiens (Human), UniProt Q9Y5Z0); assay: In vitro enzymatic BACE2 FRET assay; format: biochemical; conditions: BACE2 FRET enzyme assay; read-out: IC50 IP (μM) BACE2 enzyme
# Summary of the method: as §1
# [3] = tested on: Aβ40 in conditioned medium of cells stably expressing Amyloid Precursor Protein (APP); assay: In vitro BACE-1 cell-based assay (Aβ40 sandwich ELISA); conditions: BACE1 cell-based assay; read-out: IC50 IP (μM) BACE1 cell
# Summary of the method: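 APP-expressing cells treated 24 h at 37 °C with compound in 10-point dose response (top 100 μM or 10 μM, 0.1% DMSO final). Secreted Aβ40 in conditioned medium quantified by sandwich ELISA (pAb40 capture, biotinylated 6E10 detection, time-resolved europium fluorescence); IC50 from percent inhibition versus concentration.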
# [4] = target: Recombinant Cat D (Homo sapiens (Human), UniProt P07339); assay: In vitro enzymatic Cathepsin D (Cat D) FRET assay; format: biochemical; conditions: Cathepsin D FRET enzyme assay; read-out: IC50 IP (μM) CatD
# Summary of the method: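 Cleavage of a 20 nM FRET peptide by CHO-derived Cat D over 1 h at pH 3.5 (citrate buffer with CHAPS, 10% DMSO final). Endpoint fluorescence is read after Tris quench.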
# [5] = tested on: Aβ 40 in rat CSF; assay: In vivo inhibition of beta-secretase: Aβ40 reduction in rat CSF; conditions: after 4 h
# Text: (§2) In Vivo Inhibition of Beta-Secretase
# Several animal models, including mouse, rat, dog, and monkey, may be used to screen for inhibition of beta-secretase activity in vivo following administration of a test compound sample. Animals used in this invention can be wild type, transgenic, or gene knockout animals. For example, the Tg2576 mouse model, prepared and conducted as described in Hsiao et al., 1996, Science 274, 99-102, and other non-transgenic or gene knockout animals are useful to analyze in vivo inhibition of Amyloid beta peptide (Abeta) production in the presence of inhibitory test compounds. Generally, 2 to 18 month old Tg2576 mice, gene knockout mice or non-transgenic animals are administered test compounds formulated in vehicles, such as cyclodextran, phosphate buffers, hydroxypropyl methylcellulose or other suitable vehicles. One to twenty-four hours following the administration of compound, animals are sacrificed, and brains as well as cerebrospinal fluid (CSF) and plasma are removed for analysis of A-beta levels and drug or test compound concentrations (Dovey et al., 2001, Journal of Neurochemistry, 76,173-181) Beginning at time 0, animals are administered by oral gavage, or other means of delivery such as intravenous injection, an inhibitory test compound of up to 100 mg/kg in a standard, conventional formulation, such as 2% hydroxypropyl methylcellulose, 1% Tween80. A separate group of animals receive 2% hydroxypropyl methylcellulose, 1% Tween80 alone, containing no test compound, and serve as a vehicle-control group. At the end of the test period, animals are sacrificed and brain tissues, plasma or cerebrospinal fluid are collected. […] Homogenates are centrifuged at 355,000 g, 4° C. for 30 minutes. CSF or brain supernatants are then analyzed for the presence of A-beta peptide by specific sandwich ELISA assays based on ECL (Electrochemiluminescence) technology. For example, rat Abeta40 is measured using biotinylated-4G8 (Signet) as a capture antibody and Fab40 (an in-house antibody specific to the C-terminal of Abeta40) as a detection antibody. For example, 4 hours after administration of 30 mg/kg oral dose of the test compound in 2% hydroxypropyl methylcellulose, 1% Tween80 (pH2.2) to 200 g male Sprague Dawley rats, amyloid beta peptide levels are measured for reduction by X % and Y % in cerebrospinal fluid and brain, respectively, when compared to the levels measured in the vehicle-treated or control mice.
# (§3) Actual vehicles used: Oral: 2% HPMC, 1% Tween80, pH 2.2
# The compounds of the invention may be shown to reduce the formation and/or deposition of amyloid beta peptide in the cerebrospinal fluid (CSF) as well as in the brain of a mouse or rat at either 3 mpk, 10 mpk or 30 mpk (mpk=mg compound per kg weight of the animal) dosing concentrations after 4 h.
# [6] = tested on: Aβ 40 in rat brain; assay: In vivo inhibition of beta-secretase: Aβ40 reduction in rat brain; conditions: after 4 h
# Text: as §2
# Several animal models, including mouse, rat, dog, and monkey, may be used to screen for inhibition of beta-secretase activity in vivo following administration of a test compound sample. Animals used in this invention can be wild type, transgenic, or gene knockout animals. […] One to twenty-four hours following the administration of compound, animals are sacrificed, and brains as well as cerebrospinal fluid (CSF) and plasma are removed for analysis of A-beta levels and drug or test compound concentrations (Dovey et al., 2001, Journal of Neurochemistry, 76,173-181) Beginning at time 0, animals are administered by oral gavage, or other means of delivery such as intravenous injection, an inhibitory test compound of up to 100 mg/kg in a standard, conventional formulation, such as 2% hydroxypropyl methylcellulose, 1% Tween80. A separate group of animals receive 2% hydroxypropyl methylcellulose, 1% Tween80 alone, containing no test compound, and serve as a vehicle-control group. At the end of the test period, animals are sacrificed and brain tissues, plasma or cerebrospinal fluid are collected. […] Homogenates are centrifuged at 355,000 g, 4° C. for 30 minutes. CSF or brain supernatants are then analyzed for the presence of A-beta peptide by specific sandwich ELISA assays based on ECL (Electrochemiluminescence) technology. For example, rat Abeta40 is measured using biotinylated-4G8 (Signet) as a capture antibody and Fab40 (an in-house antibody specific to the C-terminal of Abeta40) as a detection antibody.
# as §3
# Chain of Recombinant Cat D (P07339 65-412): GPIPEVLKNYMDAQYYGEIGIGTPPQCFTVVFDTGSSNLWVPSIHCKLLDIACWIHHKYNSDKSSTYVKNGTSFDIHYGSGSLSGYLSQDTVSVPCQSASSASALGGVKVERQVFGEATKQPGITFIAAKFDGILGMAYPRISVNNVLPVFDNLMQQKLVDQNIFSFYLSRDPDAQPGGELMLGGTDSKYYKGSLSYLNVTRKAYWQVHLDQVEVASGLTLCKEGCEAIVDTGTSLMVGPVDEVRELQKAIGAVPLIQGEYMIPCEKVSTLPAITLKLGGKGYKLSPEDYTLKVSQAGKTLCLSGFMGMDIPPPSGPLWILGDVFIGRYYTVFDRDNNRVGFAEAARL
# Chain of human recombinant BACE1 (P56817 46-501): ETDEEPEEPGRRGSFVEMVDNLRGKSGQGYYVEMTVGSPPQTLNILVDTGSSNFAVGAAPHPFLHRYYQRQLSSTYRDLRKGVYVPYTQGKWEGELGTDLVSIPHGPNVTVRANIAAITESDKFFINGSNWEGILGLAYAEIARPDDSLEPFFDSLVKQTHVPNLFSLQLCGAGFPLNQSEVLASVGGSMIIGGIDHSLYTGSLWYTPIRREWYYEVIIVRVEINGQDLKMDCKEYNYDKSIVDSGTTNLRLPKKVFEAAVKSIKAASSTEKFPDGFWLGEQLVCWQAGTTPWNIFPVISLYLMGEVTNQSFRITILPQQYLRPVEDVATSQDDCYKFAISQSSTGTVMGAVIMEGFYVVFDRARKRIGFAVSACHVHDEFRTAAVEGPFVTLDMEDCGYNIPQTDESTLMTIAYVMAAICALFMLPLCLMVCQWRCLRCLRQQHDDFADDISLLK
# Chain of human recombinant BACE2 (Q9Y5Z0 63-518): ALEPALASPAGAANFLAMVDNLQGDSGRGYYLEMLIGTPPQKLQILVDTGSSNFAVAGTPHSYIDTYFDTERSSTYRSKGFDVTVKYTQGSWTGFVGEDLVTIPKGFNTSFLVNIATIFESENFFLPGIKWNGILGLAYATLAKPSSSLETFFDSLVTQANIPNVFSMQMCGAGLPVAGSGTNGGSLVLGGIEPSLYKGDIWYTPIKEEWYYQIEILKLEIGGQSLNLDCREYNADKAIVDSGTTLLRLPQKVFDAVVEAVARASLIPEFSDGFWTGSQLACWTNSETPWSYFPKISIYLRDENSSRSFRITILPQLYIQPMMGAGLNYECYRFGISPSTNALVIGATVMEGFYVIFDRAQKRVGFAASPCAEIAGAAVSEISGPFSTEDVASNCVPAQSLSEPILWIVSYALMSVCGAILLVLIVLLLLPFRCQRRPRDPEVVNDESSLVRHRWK
SMILES,IC50 [1] [µM],IC50 [2] [µM],IC50 [3] [µM],IC50 [4] [µM],% Aβ 40 reduction in rat CSF at 10 mpk [5] [%],% Aβ 40 reduction in rat brain at 10 mpk [6] [%],% Aβ 40 reduction in rat CSF (3 mpk) ([5]; 3 mpk),% Aβ 40 reduction in rat brain (3 mpk) ([6]; 3 mpk)
"NC1=N[C@](CF)(c2cc(Nc3nccc4cc(Cl)cnc34)ccc2F)[C@@H]2C[C@]2(CO)S1 [Example 45, ((1S,5S,6S)-3-amino-5-(5-((3-chloro-1,7-naphthyridin-8-yl)amino)-2-fluorophenyl)-5-(fluoromethyl)-2-thia-4-azabicyclo[4.1.0]hept-3-en-1-yl)methanol]",0.00299,< 0.00203,0.00427,> 400,17,0,,
"COC[C@]12C[C@H]1[C@@](C)(c1cc(Nc3ncnc4cc(C#N)cnc34)cc(F)c1F)N=C(N)S2 [Example 46, 4-((3-((1S,5S,6S)-3-amino-1-(methoxymethyl)-5-methyl-2-thia-4-azabicyclo[4.1.0]hept-3-en-5-yl)-4,5-difluorophenyl)amino)pyrido[3,2-d]pyrimidine-7-carbonitrile]",0.00631,0.0301,0.00352,252,73,67,,
"NC1=N[C@](CF)(c2cc(Nc3ncnc4cc(Cl)cnc34)ccc2F)[C@@H]2C[C@]2(CO)S1 [Example 49, ((1S,5S,6S)-3-amino-5-(5-((7-chloropyrido[3,2-d]pyrimidin-4-yl)amino)-2-fluorophenyl)-5-(fluoromethyl)-2-thia-4-azabicyclo[4.1.0]hept-3-en-1-yl)methanol]",0.00631,0.00749,0.0084,1760,24,14,,
"N#Cc1cnc2c(Nc3ccc(F)c([C@@]4(CF)N=C(N)S[C@H]5C[C@H]54)c3)ncnc2c1 [Example 51, 4-((3-((1S,5S,6S)-3-amino-5-(fluoromethyl)-2-thia-4-azabicyclo[4.1.0]hept-3-en-5-yl)-4-fluorophenyl)amino)pyrido[3,2-d]pyrimidine-7-carbonitrile]",0.033,0.0983,0.00344,1350,,,23 (3 mpk) %,17 (3 mpk) %
"C#CCOc1cnc2c(Nc3ccc(F)c([C@@]4(CF)N=C(N)S[C@@]5(CO)C[C@H]54)c3)nccc2c1 [Example 52, ((1S,5S,6S)-3-amino-5-(fluoromethyl)-5-(2-fluoro-5-((3-(2-propyn-1-yloxy)-1,7-naphthyridin-8-yl)amino)phenyl)-2-thia-4-azabicyclo[4.1.0]hept-3-en-1-yl)methanol]",0.0105,0.23,0.00455,> 400,16,0,,
"C[C@]1(c2cc(Nc3nccc4cc(C#N)cnc34)cc(F)c2F)N=C(N)S[C@@]2(CO)C[C@H]21 [Example 54, 8-((3-((1S,5S,6S)-3-amino-1-(hydroxymethyl)-5-methyl-2-thia-4-azabicyclo[4.1.0]hept-3-en-5-yl)-4,5-difluorophenyl)amino)-1,7-naphthyridine-3-carbonitrile]",0.00139,< 0.00203,0.00196,> 44.4,18,19,,
"C#CCOc1cnc2c(Nc3cc(F)c(F)c([C@@]4(C)N=C(N)S[C@@]5(CO)C[C@H]54)c3)nccc2n1 [Example 82, ((1S,5S,6S)-3-amino-5-(2,3-difluoro-5-((2-(2-propyn-1-yloxy)pyrido[3,4-b]pyrazin-5-yl)amino)phenyl)-5-methyl-2-thia-4-azabicyclo[4.1.0]hept-3-en-1-yl)methanol]",0.00043,0.0099,0.00354,> 133,48,23,,
